Experimental data reported in patent publication US8895547B2, “Substituted phenyl-oxathiazine derivatives, method for producing them, drugs containing said compounds and the use thereof” (Sanofi, priority 2011, dated 2014).

target: T1, human 11β-HSD1 (Homo sapiens, UniProt P28845); experiment: Enzymatic 11beta-HSD1 test (SPA-based detection); type: biochemical; conditions: human 11β-HSD1 microsome fraction, [1,2-3H]-cortisone, NADPH, 37° C. 1 hour
T1 construct: host or cells: microsome fraction
T1 sequence (P28845 whole entry): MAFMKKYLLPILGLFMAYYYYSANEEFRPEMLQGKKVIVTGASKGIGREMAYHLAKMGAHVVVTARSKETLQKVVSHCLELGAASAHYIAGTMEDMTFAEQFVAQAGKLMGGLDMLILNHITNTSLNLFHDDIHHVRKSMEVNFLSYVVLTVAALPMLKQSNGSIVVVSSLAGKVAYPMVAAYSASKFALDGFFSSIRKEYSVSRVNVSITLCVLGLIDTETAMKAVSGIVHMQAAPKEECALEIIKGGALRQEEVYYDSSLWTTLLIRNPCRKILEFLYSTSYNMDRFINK
Method in brief: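 Scintillation proximity detection: anti-cortisol antibody on SPA-PVT beads captured tritiated cortisol. The stop mix also contained 0.01 mM SSR110887 and was equilibrated 1 h at room temperature before counting. Cortisol came from [1,2-3H]-cortisone ([…]), turned over by human 11β-HSD1 microsomal protein (0.2 µg) with 0.25 mM NADPH in HEPES buffer, 37 °C, 1 h.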

| SMILES | IC50 [nM] |
| --- | --- |
| C[C@H](NC1=NS(=O)(=O)C(c2ccc(C3CCN(C(C)(C)C)CC3)cc2)C(C)(C)O1)c1ccccc1F (stereo partly drawn) [Example 171, {5-[4-(1-tert-Butyl-piperidin-4-yl)-phenyl]-6,6-dimethyl-4,4-dioxo-5,6-dihydro-4H-4lambda6-[1,4,3]oxathiazin-2-yl}-[(S)-1-(2-fluorophenyl)-ethyl]-amine] | 108 |
| C[C@H](NC1=NS(=O)(=O)C(c2ccc(C3CCN(C4CC4)CC3)cc2)C(C)(C)O1)c1ccccc1F (stereo partly drawn) [Example 172, {5-[4-(1-Cyclopropyl-piperidin-4-yl)-phenyl]-6,6-dimethyl-4,4-dioxo-5,6-dihydro-4H-4lambda6-[1,4,3]oxathiazin-2-yl}-[(S)-1-(2-fluorophenyl)-ethyl]-amine] | 55 |
| C[C@H](NC1=NS(=O)(=O)C(c2ccc(-c3ccccc3CN(C)C)cc2)C(C)(C)O1)c1ccccc1F (stereo partly drawn) [Example 173, [5-(2′-Dimethylaminomethyl-biphenyl-4-yl)-6,6-dimethyl-4,4-dioxo-5,6-dihydro-4H-4lambda6-[1,4,3]oxathiazin-2-yl]-[(S)-1-(2-fluorophenyl)-ethyl]-amin] | 137 |
| C[C@H](NC1=NS(=O)(=O)[C@@H](c2ccc(-c3cccc(C(N)=O)c3)cc2)C(C)(C)O1)c1ccccc1F [Example 174, 4′-{(S)-2-[(S)-1-(2-fluorophenyl)-ethylamino]-6,6-dimethyl-4,4-dioxo-5,6-dihydro-4H-4lambda6-[1,4,3]oxathiazin-5-yl}-biphenyl-3-carboxamide] | 18 |
| C[C@H](NC1=NS(=O)(=O)[C@H](c2ccc(-c3cccc(C(N)=O)c3)cc2)C(C)(C)O1)c1ccccc1F [Example 175, 4′-{(R)-2-[(S)-1-(2-fluorophenyl)-ethylamino]-6,6-dimethyl-4,4-dioxo-5,6-dihydro-4H-4lambda6-[1,4,3]oxathiazin-5-yl}-biphenyl-3-carboxamide] | 20 |
| C[C@H](NC1=NS(=O)(=O)[C@@H](c2ccc(-c3cncc(C(N)=O)c3)cc2)C(C)(C)O1)c1ccccc1F [Example 177, 5-(4-{(S)-2-[(S)-1-(2-fluorophenyl)-ethylamino]-6,6-dimethyl-4,4-dioxo-5,6-dihydro-4H-4lambda6-[1,4,3]oxathiazin-5-yl}-phenyl)-nicotinamide] | 17 |
| C[C@H](NC1=NS(=O)(=O)C(c2cccc(C3CCN(C)CC3)c2)C(C)(C)O1)c1ccccc1F (stereo partly drawn) [Example 179, {6,6-Dimethyl-5-[3-(1-methyl-piperidin-4-yl)-phenyl]-4,4-dioxo-5,6-dihydro-4H-4lambda6-[1,4,3]oxathiazin-2-yl}-[(S)-1-(2-fluorophenyl)-ethyl]-amine] | 34 |

Stronger by IC50, values ahead:

| IC50 [nM] | SMILES |
| --- | --- |
| 6 | C[C@H](NC1=NS(=O)(=O)C(c2ccc(-c3cccc(C(N)=O)c3)nc2)C(C)(C)O1)c1ccccc1F (stereo partly drawn) [Example 176, 3-(5-{2-[(S)-1-(2-fluor-phenyl)-ethylamino]-6,6-odimethyl-4,4-dioxo-5,6-dihydro-4H-4lambda6-[1,4,3]oxathiazin-5-yl}-pyridin-2-yl)-benzamide] |
| 3 | C[C@H](NC1=NS(=O)(=O)[C@H](c2ccc(-c3cncc(C(N)=O)c3)cc2)C(C)(C)O1)c1ccccc1F [Example 178, 5-(4-{(R)-2-[(S)-1-(2-fluorophenyl)-ethylamino]-6,6-dimethyl-4,4-dioxo-5,6-dihydro-4H-4lambda6-[1,4,3]oxathiazin-5-yl}-phenyl)-nicotinamide] |
| 10 | C[C@H](NC1=NS(=O)(=O)C(c2ccc(-c3cccc(C(N)=O)c3)nc2)C(C)(C)O1)c1ccccc1F (stereo partly drawn) [Example 180, 3-(5-{2-[(S)-1-(2-fluorophenyl)-ethylamino]-6,6-dimethyl-4,4-dioxo-5,6-dihydro-4H-41ambda6-[1,4,3]oxathiazin-5-yl}-pyridin-2-yl)-benzamide] |
| 7 | C[C@H](NC1=NS(=O)(=O)C(c2ccc(-c3cccc(C(N)=O)c3)nc2)C(C)(C)O1)c1ccccc1F (stereo partly drawn) [Example 181, 3-(5-{2-[(S)-1-(2-fluorophenyl)-ethylamino]-6,6-dimethyl-4,4-dioxo-5,6-dihydro-4H-4lambda6-[1,4,3]oxathiazin-5-yl}-pyridin-2-yl)-benzamide] |
